Data as given in patent US7118895B2, “Process for producing aglycon by using diglycosidase and flavor-improved food containing the aglycon and converting agent to be used in the process” (Amano Enzyme Inc., priority 2000, dated 2006).

Tested on: Crude diglycosidase
Assay: Examination of pH in the conversion into isoflavone aglycons by diglycosidase using soybean materials
Assay type: biochemical, Penicillium multicolor IAM7153
Details: for Decomposition efficiency of glycitin family in roasted soy flour / Decomposition efficiency of glycitin family in soymilk: 55° C.
Summary of the method: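 Conversion of glycosides to isoflavone aglycons was followed by HPLC after crude diglycosidase (1.88 AU/mL enzyme solution) acted at 55° C for up to 6 h on four soy materials, 50 mg each, held at pH 2–11.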

[1] = pH6.6, heat treatment of enzyme: no, reaction time 0 h
[2] = pH6.6, heat treatment of enzyme: no, reaction time 1 h
[3] = pH6.6, heat treatment of enzyme: no, reaction time 3 h
[4] = pH6.6, heat treatment of enzyme: no, reaction time 6 h
[5] = pH6.6, heat treatment of enzyme: yes, reaction time 6 h

Decomposition efficiency of glycitin family in concentrated soybean protein (pH1.6, heat treatment of enzyme: no, reaction time 0 h): 52.3%
Decomposition efficiency of glycitin family in concentrated soybean protein (pH1.6, heat treatment of enzyme: no, reaction time 1 h): 52.9%
Decomposition efficiency of glycitin family in concentrated soybean protein (pH1.6, heat treatment of enzyme: no, reaction time 3 h): 54.3%
Decomposition efficiency of glycitin family in concentrated soybean protein (pH1.6, heat treatment of enzyme: no, reaction time 6 h): 56.1%
Decomposition efficiency of glycitin family in concentrated soybean protein (pH1.6, heat treatment of enzyme: yes, reaction time 6 h): 57.9%
Decomposition efficiency of glycitin family in roasted soy flour (pH2, heat treatment of enzyme no, reaction time 0 h): 56.8
Decomposition efficiency of glycitin family in roasted soy flour (pH2, heat treatment of enzyme no, reaction time 1 h): 56.6
Decomposition efficiency of glycitin family in roasted soy flour (pH2, heat treatment of enzyme no, reaction time 3 h): 56.3
Decomposition efficiency of glycitin family in roasted soy flour (pH2, heat treatment of enzyme no, reaction time 6 h): 54.4
Decomposition efficiency of glycitin family in roasted soy flour (pH2, heat treatment of enzyme yes, reaction time 6 h): 54.4
Decomposition efficiency of glycitin family in soymilk (pH2.3, heat treatment of enzyme no, reaction time 0 h): 50.2
Decomposition efficiency of glycitin family in soymilk (pH2.3, heat treatment of enzyme no, reaction time 1 h): not detected
Decomposition efficiency of glycitin family in soymilk (pH2.3, heat treatment of enzyme no, reaction time 3 h): not detected
Decomposition efficiency of glycitin family in soymilk (pH2.3, heat treatment of enzyme no, reaction time 6 h): not detected
Decomposition efficiency of glycitin family in soymilk (pH2.3, heat treatment of enzyme yes, reaction time 6 h): 51.7
Decomposition efficiency of glycitin family in defatted soybean (pH2.6, heat treatment of enzyme: no, reaction time 0 h): not detected
Decomposition efficiency of glycitin family in defatted soybean (pH2.6, heat treatment of enzyme: no, reaction time 1 h): not detected
Decomposition efficiency of glycitin family in defatted soybean (pH2.6, heat treatment of enzyme: no, reaction time 3 h): not detected
Decomposition efficiency of glycitin family in defatted soybean (pH2.6, heat treatment of enzyme: no, reaction time 6 h): not detected
Decomposition efficiency of glycitin family in defatted soybean (pH2.6, heat treatment of enzyme: yes, reaction time 6 h): not detected
Decomposition efficiency of glycitin family in concentrated soybean protein (pH2.7, heat treatment of enzyme: no, reaction time 0 h): 52.3%
Decomposition efficiency of glycitin family in concentrated soybean protein (pH2.7, heat treatment of enzyme: no, reaction time 1 h): 38.0%
Decomposition efficiency of glycitin family in concentrated soybean protein (pH2.7, heat treatment of enzyme: no, reaction time 3 h): 37.2%
Decomposition efficiency of glycitin family in concentrated soybean protein (pH2.7, heat treatment of enzyme: no, reaction time 6 h): 33.7%
Decomposition efficiency of glycitin family in concentrated soybean protein (pH2.7, heat treatment of enzyme: yes, reaction time 6 h): 52.7%
Decomposition efficiency of glycitin family in roasted soy flour (pH3, heat treatment of enzyme no, reaction time 0 h): 56.8
Decomposition efficiency of glycitin family in roasted soy flour (pH3, heat treatment of enzyme no, reaction time 1 h): not detected
Decomposition efficiency of glycitin family in roasted soy flour (pH3, heat treatment of enzyme no, reaction time 3 h): not detected
Decomposition efficiency of glycitin family in roasted soy flour (pH3, heat treatment of enzyme no, reaction time 6 h): not detected
Decomposition efficiency of glycitin family in roasted soy flour (pH3, heat treatment of enzyme yes, reaction time 6 h): 55.1
Decomposition efficiency of glycitin family in defatted soybean (pH3.4, heat treatment of enzyme: no, reaction time 0 h): not detected
Decomposition efficiency of glycitin family in defatted soybean (pH3.4, heat treatment of enzyme: no, reaction time 1 h): not detected
Decomposition efficiency of glycitin family in defatted soybean (pH3.4, heat treatment of enzyme: no, reaction time 3 h): not detected
Decomposition efficiency of glycitin family in defatted soybean (pH3.4, heat treatment of enzyme: no, reaction time 6 h): not detected
Decomposition efficiency of glycitin family in defatted soybean (pH3.4, heat treatment of enzyme: yes, reaction time 6 h): not detected
Decomposition efficiency of glycitin family in soymilk (pH3.5, heat treatment of enzyme no, reaction time 0 h): 50.2
Decomposition efficiency of glycitin family in soymilk (pH3.5, heat treatment of enzyme no, reaction time 1 h): not detected
Decomposition efficiency of glycitin family in soymilk (pH3.5, heat treatment of enzyme no, reaction time 3 h): not detected
Decomposition efficiency of glycitin family in soymilk (pH3.5, heat treatment of enzyme no, reaction time 6 h): not detected
Decomposition efficiency of glycitin family in soymilk (pH3.5, heat treatment of enzyme yes, reaction time 6 h): 54.2
Decomposition efficiency of glycitin family in concentrated soybean protein (pH3.7, heat treatment of enzyme: no, reaction time 0 h): 52.4%
Decomposition efficiency of glycitin family in concentrated soybean protein (pH3.7, heat treatment of enzyme: no, reaction time 1 h): not detected
Decomposition efficiency of glycitin family in concentrated soybean protein (pH3.7, heat treatment of enzyme: no, reaction time 3 h): not detected
Decomposition efficiency of glycitin family in concentrated soybean protein (pH3.7, heat treatment of enzyme: no, reaction time 6 h): not detected
Decomposition efficiency of glycitin family in concentrated soybean protein (pH3.7, heat treatment of enzyme: yes, reaction time 6 h): 52.4%
Decomposition efficiency of glycitin family in roasted soy flour (pH4, heat treatment of enzyme no, reaction time 0 h): 56.6
Decomposition efficiency of glycitin family in roasted soy flour (pH4, heat treatment of enzyme no, reaction time 1 h): not detected
Decomposition efficiency of glycitin family in roasted soy flour (pH4, heat treatment of enzyme no, reaction time 3 h): not detected
Decomposition efficiency of glycitin family in roasted soy flour (pH4, heat treatment of enzyme no, reaction time 6 h): not detected
Decomposition efficiency of glycitin family in roasted soy flour (pH4, heat treatment of enzyme yes, reaction time 6 h): 55.1
Decomposition efficiency of glycitin family in soymilk (pH4.8, heat treatment of enzyme no, reaction time 0 h): 50.7
Decomposition efficiency of glycitin family in soymilk (pH4.8, heat treatment of enzyme no, reaction time 1 h): not detected
Decomposition efficiency of glycitin family in soymilk (pH4.8, heat treatment of enzyme no, reaction time 3 h): not detected
Decomposition efficiency of glycitin family in soymilk (pH4.8, heat treatment of enzyme no, reaction time 6 h): not detected
Decomposition efficiency of glycitin family in soymilk (pH4.8, heat treatment of enzyme yes, reaction time 6 h): 54.3
Decomposition efficiency of glycitin family in defatted soybean (pH4.8, heat treatment of enzyme: no, reaction time 0 h): not detected
Decomposition efficiency of glycitin family in defatted soybean (pH4.8, heat treatment of enzyme: no, reaction time 1 h): not detected
Decomposition efficiency of glycitin family in defatted soybean (pH4.8, heat treatment of enzyme: no, reaction time 3 h): not detected
Decomposition efficiency of glycitin family in defatted soybean (pH4.8, heat treatment of enzyme: no, reaction time 6 h): not detected
Decomposition efficiency of glycitin family in defatted soybean (pH4.8, heat treatment of enzyme: yes, reaction time 6 h): not detected
Decomposition efficiency of glycitin family in roasted soy flour (pH5, heat treatment of enzyme no, reaction time 0 h): 56.6
Decomposition efficiency of glycitin family in roasted soy flour (pH5, heat treatment of enzyme no, reaction time 1 h): not detected
Decomposition efficiency of glycitin family in roasted soy flour (pH5, heat treatment of enzyme no, reaction time 3 h): not detected
Decomposition efficiency of glycitin family in roasted soy flour (pH5, heat treatment of enzyme no, reaction time 6 h): not detected
Decomposition efficiency of glycitin family in roasted soy flour (pH5, heat treatment of enzyme yes, reaction time 6 h): 55.4
Decomposition efficiency of glycitin family in concentrated soybean protein (pH5.1, heat treatment of enzyme: no, reaction time 0 h): 52.4%
Decomposition efficiency of glycitin family in concentrated soybean protein (pH5.1, heat treatment of enzyme: no, reaction time 1 h): 4.1%
Decomposition efficiency of glycitin family in concentrated soybean protein (pH5.1, heat treatment of enzyme: no, reaction time 3 h): not detected
Decomposition efficiency of glycitin family in concentrated soybean protein (pH5.1, heat treatment of enzyme: no, reaction time 6 h): not detected
Decomposition efficiency of glycitin family in concentrated soybean protein (pH5.1, heat treatment of enzyme: yes, reaction time 6 h): 52.3%
Decomposition efficiency of glycitin family in defatted soybean (pH5.4, heat treatment of enzyme: no, reaction time 0 h): not detected
Decomposition efficiency of glycitin family in defatted soybean (pH5.4, heat treatment of enzyme: no, reaction time 1 h): not detected
Decomposition efficiency of glycitin family in defatted soybean (pH5.4, heat treatment of enzyme: no, reaction time 3 h): not detected
Decomposition efficiency of glycitin family in defatted soybean (pH5.4, heat treatment of enzyme: no, reaction time 6 h): not detected
Decomposition efficiency of glycitin family in defatted soybean (pH5.4, heat treatment of enzyme: yes, reaction time 6 h): not detected
Decomposition efficiency of glycitin family in soymilk (pH6.2, heat treatment of enzyme no, reaction time 0 h): 50.7
Decomposition efficiency of glycitin family in soymilk (pH6.2, heat treatment of enzyme no, reaction time 1 h): not detected
Decomposition efficiency of glycitin family in soymilk (pH6.2, heat treatment of enzyme no, reaction time 3 h): not detected
Decomposition efficiency of glycitin family in soymilk (pH6.2, heat treatment of enzyme no, reaction time 6 h): not detected
Decomposition efficiency of glycitin family in soymilk (pH6.2, heat treatment of enzyme yes, reaction time 6 h): 54.2
Decomposition efficiency of glycitin family in roasted soy flour (pH6.5, heat treatment of enzyme no, reaction time 0 h): 55.9
Decomposition efficiency of glycitin family in roasted soy flour (pH6.5, heat treatment of enzyme no, reaction time 1 h): not detected
Decomposition efficiency of glycitin family in roasted soy flour (pH6.5, heat treatment of enzyme no, reaction time 3 h): not detected
Decomposition efficiency of glycitin family in roasted soy flour (pH6.5, heat treatment of enzyme no, reaction time 6 h): not detected
Decomposition efficiency of glycitin family in roasted soy flour (pH6.5, heat treatment of enzyme yes, reaction time 6 h): 54.8
Decomposition efficiency of glycitin family in concentrated soybean protein [1]: 52.2%
Decomposition efficiency of glycitin family in defatted soybean [1]: not detected
Decomposition efficiency of glycitin family in concentrated soybean protein [2]: 22.6%
Decomposition efficiency of glycitin family in defatted soybean [2]: not detected
Decomposition efficiency of glycitin family in concentrated soybean protein [3]: 6.9%
Decomposition efficiency of glycitin family in defatted soybean [3]: not detected
Decomposition efficiency of glycitin family in concentrated soybean protein [4]: 2.0%
Decomposition efficiency of glycitin family in defatted soybean [4]: not detected
Decomposition efficiency of glycitin family in concentrated soybean protein [5]: 53.3%
Decomposition efficiency of glycitin family in defatted soybean [5]: not detected
Decomposition efficiency of glycitin family in soymilk (pH7.2, heat treatment of enzyme no, reaction time 0 h): 50.0
Decomposition efficiency of glycitin family in soymilk (pH7.2, heat treatment of enzyme no, reaction time 1 h): not detected
Decomposition efficiency of glycitin family in soymilk (pH7.2, heat treatment of enzyme no, reaction time 3 h): not detected
Decomposition efficiency of glycitin family in soymilk (pH7.2, heat treatment of enzyme no, reaction time 6 h): not detected
Decomposition efficiency of glycitin family in soymilk (pH7.2, heat treatment of enzyme yes, reaction time 6 h): 56.9
Decomposition efficiency of glycitin family in defatted soybean (pH7.8, heat treatment of enzyme: no, reaction time 0 h): not detected
Decomposition efficiency of glycitin family in defatted soybean (pH7.8, heat treatment of enzyme: no, reaction time 1 h): not detected
Decomposition efficiency of glycitin family in defatted soybean (pH7.8, heat treatment of enzyme: no, reaction time 3 h): not detected
Decomposition efficiency of glycitin family in defatted soybean (pH7.8, heat treatment of enzyme: no, reaction time 6 h): not detected
Decomposition efficiency of glycitin family in defatted soybean (pH7.8, heat treatment of enzyme: yes, reaction time 6 h): not detected
Decomposition efficiency of glycitin family in roasted soy flour (pH8.5, heat treatment of enzyme no, reaction time 0 h): 59.4
Decomposition efficiency of glycitin family in roasted soy flour (pH8.5, heat treatment of enzyme no, reaction time 1 h): 39.4
Decomposition efficiency of glycitin family in roasted soy flour (pH8.5, heat treatment of enzyme no, reaction time 3 h): 29.3
Decomposition efficiency of glycitin family in roasted soy flour (pH8.5, heat treatment of enzyme no, reaction time 6 h): 22.4
Decomposition efficiency of glycitin family in roasted soy flour (pH8.5, heat treatment of enzyme yes, reaction time 6 h): 59.2
Decomposition efficiency of glycitin family in concentrated soybean protein (pH8.6, heat treatment of enzyme: no, reaction time 0 h): 54.9%
Decomposition efficiency of glycitin family in concentrated soybean protein (pH8.6, heat treatment of enzyme: no, reaction time 1 h): 51.6%
Decomposition efficiency of glycitin family in concentrated soybean protein (pH8.6, heat treatment of enzyme: no, reaction time 3 h): 45.9%
Decomposition efficiency of glycitin family in concentrated soybean protein (pH8.6, heat treatment of enzyme: no, reaction time 6 h): 36.7%
Decomposition efficiency of glycitin family in concentrated soybean protein (pH8.6, heat treatment of enzyme: yes, reaction time 6 h): 56.8%
Decomposition efficiency of glycitin family in soymilk (pH11.6, heat treatment of enzyme no, reaction time 0 h): 54.3
Decomposition efficiency of glycitin family in soymilk (pH11.6, heat treatment of enzyme no, reaction time 1 h): not detected
Decomposition efficiency of glycitin family in soymilk (pH11.6, heat treatment of enzyme no, reaction time 3 h): not detected
Decomposition efficiency of glycitin family in soymilk (pH11.6, heat treatment of enzyme no, reaction time 6 h): not detected
Decomposition efficiency of glycitin family in soymilk (pH11.6, heat treatment of enzyme yes, reaction time 6 h): 59.7
SMILES: COc1cc2c(=O)c(-c3ccc(O)cc3)coc2cc1O[C@@H]1O[C@H](CO)[C@@H](O)[C@H](O)[C@H]1O [glycitin]
